We go through twelve molecules from ChEMBL document CHEMBL6153174, “Design and Synthesis of Novel Deazapurine DNMT 1 Inhibitors with In Vivo Efficacy in DLBCL” (J Med Chem, 2025).

Some results are limits rather than exact numbers.

Assay [1] concerns the target T1, DNA (cytosine-5)-methyltransferase 1 (Homo sapiens, UniProt P26358). Description: Inhibition of DNMT1 (unknown origin) preincubated for 15 mins followed by substrate and [3H-SAM] addition and measured after 60 mins by microbeta analysis.
Assay [2] has as its target T1, DNA (cytosine-5)-methyltransferase 1. Kind of assay: Inhibition of DNMT1 (unknown origin) at 5 uM preincubated for 15 mins followed by substrate and [3H-SAM] addition and measured after 60 mins by microbeta analysis relative to control. To be noted: time 75.0 min.
Assay [3] deals with T2, DNA (cytosine-5)-methyltransferase 3A (Homo sapiens, UniProt Q9Y6K1). Description: Inhibition of DNMT3A (unknown origin) at 5 uM preincubated for 15 mins followed by substrate and [3H-SAM] addition and measured after 60 mins by microbeta analysis relative to control. Conditions: time 75.0 min.
Assay [4] concerns the target DNA (cytosine-5)-methyltransferase 3B (Homo sapiens, UniProt Q9UBC3). Description: Inhibition of DNMT3B (unknown origin) at 5 uM preincubated for 15 mins followed by substrate and [3H-SAM] addition and measured after 60 mins by microbeta analysis relative to control. To be noted: time 75.0 min.
The target of assay [5] is T3, Histone-lysine N-methyltransferase EHMT2 (Homo sapiens) (UniProt Q96KQ7).
T3 sequence (whole entry): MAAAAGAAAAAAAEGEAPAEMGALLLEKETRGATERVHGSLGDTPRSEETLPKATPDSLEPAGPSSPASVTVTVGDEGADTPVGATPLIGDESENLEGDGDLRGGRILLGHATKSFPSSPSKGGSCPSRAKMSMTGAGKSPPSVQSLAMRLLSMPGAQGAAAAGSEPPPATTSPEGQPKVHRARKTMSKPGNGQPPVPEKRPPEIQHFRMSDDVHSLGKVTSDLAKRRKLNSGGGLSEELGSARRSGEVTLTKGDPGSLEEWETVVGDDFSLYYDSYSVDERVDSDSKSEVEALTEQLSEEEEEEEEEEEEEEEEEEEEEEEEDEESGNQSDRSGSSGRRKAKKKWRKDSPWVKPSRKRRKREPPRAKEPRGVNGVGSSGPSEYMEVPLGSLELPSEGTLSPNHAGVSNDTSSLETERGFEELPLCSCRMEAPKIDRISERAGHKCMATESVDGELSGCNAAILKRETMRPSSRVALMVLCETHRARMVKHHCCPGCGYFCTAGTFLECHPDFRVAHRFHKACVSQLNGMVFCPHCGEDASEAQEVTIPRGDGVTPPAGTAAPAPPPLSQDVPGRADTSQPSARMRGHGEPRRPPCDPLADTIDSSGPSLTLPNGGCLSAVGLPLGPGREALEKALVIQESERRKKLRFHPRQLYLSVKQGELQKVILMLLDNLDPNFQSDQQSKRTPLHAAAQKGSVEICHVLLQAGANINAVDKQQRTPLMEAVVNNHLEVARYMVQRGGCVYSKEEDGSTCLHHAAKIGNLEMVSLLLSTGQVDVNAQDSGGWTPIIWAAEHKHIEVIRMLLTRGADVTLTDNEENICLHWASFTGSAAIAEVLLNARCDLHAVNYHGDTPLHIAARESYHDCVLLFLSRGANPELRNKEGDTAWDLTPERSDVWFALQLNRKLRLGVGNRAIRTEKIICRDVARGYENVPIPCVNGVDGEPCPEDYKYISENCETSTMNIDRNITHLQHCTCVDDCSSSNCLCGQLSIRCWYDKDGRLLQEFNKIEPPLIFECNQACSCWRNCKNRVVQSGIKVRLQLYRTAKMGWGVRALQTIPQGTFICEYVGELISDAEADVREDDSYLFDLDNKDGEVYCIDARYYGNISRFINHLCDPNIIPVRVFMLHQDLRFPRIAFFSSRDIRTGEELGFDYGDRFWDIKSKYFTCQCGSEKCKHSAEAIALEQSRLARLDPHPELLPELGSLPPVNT
Kind of assay: Inhibition of G9a (unknown origin) at 5 uM preincubated for 15 mins followed by substrate and [3H-SAM] addition and measured after 60 mins by microbeta analysis relative to control. To be noted: time 75.0 min.

The next assay concerns MV4-11. Description: Antiproliferative activity against human MV4-11 cells assessed as inhibition of cell viability measured after 72 hrs by MTT assay. It counts as functional, cell-based. Conditions: MV4-11, 72 h.
In a further assay the test system is U-937. Description: Antiproliferative activity against human U-937 cells assessed as inhibition of cell viability measured after 72 hrs by MTT assay. The format is functional, cell-based. To be noted: U-937, 72 h.
The target of assay [6] is T2, DNA (cytosine-5)-methyltransferase 3A. Description: Inhibition of DNMT3A (unknown origin) preincubated for 15 mins followed by substrate and [3H-SAM] addition and measured after 60 mins by microbeta analysis.

T1 sequence (P26358 whole entry): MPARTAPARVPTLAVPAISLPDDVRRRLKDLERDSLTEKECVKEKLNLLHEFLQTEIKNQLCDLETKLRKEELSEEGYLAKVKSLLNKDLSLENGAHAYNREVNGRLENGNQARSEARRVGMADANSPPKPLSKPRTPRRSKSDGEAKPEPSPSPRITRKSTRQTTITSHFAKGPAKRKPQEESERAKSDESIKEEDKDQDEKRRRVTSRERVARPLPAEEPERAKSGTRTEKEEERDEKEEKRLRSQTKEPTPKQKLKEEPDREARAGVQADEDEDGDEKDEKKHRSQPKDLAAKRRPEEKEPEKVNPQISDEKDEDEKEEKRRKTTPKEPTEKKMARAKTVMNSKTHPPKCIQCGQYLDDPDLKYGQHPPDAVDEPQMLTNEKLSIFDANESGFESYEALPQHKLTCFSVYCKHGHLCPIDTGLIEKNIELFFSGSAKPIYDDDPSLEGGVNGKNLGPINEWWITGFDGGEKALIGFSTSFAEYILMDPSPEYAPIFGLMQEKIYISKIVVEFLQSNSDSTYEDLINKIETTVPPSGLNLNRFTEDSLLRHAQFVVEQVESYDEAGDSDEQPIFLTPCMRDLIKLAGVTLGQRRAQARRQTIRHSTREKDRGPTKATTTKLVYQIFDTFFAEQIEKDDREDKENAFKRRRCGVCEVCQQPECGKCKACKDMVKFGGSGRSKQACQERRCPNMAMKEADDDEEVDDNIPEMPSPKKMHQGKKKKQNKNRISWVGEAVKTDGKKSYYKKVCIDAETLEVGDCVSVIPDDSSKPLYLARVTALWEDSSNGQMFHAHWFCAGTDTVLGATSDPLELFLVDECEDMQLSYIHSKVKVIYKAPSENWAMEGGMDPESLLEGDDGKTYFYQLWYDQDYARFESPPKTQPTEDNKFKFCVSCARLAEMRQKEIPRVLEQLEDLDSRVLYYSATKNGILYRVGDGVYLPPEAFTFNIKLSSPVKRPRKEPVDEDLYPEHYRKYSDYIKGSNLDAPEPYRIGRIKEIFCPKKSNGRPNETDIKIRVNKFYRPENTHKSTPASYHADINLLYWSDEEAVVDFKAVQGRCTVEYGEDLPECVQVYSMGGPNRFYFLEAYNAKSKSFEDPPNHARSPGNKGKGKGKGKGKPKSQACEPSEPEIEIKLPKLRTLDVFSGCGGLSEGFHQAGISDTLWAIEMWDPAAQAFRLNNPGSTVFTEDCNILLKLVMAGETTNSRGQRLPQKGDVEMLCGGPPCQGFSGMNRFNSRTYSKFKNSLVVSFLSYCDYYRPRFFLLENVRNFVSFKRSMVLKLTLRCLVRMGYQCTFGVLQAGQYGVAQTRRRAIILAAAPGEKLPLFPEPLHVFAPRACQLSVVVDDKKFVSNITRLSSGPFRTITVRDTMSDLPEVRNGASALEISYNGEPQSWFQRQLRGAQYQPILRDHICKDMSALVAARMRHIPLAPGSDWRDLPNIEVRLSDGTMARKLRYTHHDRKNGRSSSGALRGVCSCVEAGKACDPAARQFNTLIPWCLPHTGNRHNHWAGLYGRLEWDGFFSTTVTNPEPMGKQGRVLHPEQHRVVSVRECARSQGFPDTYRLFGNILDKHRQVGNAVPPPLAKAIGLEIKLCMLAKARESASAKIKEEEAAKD
T2 sequence (Q9Y6K1 whole entry, looked up): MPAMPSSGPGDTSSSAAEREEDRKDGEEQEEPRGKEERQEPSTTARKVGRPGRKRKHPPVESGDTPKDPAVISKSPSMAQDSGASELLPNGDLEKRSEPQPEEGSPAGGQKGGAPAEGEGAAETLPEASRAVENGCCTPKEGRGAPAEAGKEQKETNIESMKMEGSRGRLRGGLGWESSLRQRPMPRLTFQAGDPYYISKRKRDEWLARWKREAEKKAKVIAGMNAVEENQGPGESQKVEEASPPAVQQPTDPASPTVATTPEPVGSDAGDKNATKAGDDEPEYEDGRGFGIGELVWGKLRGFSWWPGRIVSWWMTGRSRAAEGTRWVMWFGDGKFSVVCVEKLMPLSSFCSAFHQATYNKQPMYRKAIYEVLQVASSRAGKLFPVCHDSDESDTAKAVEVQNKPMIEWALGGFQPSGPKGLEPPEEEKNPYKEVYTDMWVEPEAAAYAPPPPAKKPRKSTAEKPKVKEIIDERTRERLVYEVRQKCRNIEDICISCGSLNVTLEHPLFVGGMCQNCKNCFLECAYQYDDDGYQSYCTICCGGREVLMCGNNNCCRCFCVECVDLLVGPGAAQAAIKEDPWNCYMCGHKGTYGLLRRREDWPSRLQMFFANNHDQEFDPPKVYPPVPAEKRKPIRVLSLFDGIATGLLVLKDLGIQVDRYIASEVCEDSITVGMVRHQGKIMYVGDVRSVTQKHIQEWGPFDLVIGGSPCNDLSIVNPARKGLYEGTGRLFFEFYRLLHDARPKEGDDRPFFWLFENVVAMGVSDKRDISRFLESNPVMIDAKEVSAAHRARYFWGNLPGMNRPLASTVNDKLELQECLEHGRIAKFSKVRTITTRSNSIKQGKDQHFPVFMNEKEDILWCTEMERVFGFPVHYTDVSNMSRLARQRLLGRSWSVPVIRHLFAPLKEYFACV

For `Cc1ccc(-c2nc(NC3CCN(C(C)C)CC3)c3ncn(CCCN4CCCC4)c3n2)o1`, the figures for the IC50 (in assay [1]; in the assay with MV4-11; in the assay on U-937) were 23.8 µM, 46.1 µM and 55.2 µM, respectively. Further, the inhibition in assay [2] stood at 37%; in assay [3] it was 22%; in assay [4], 2%; in assay [5] it was 2.5%.
Take `CN1CCC(Nc2nc(N3CCCN(C)CC3)nc3c2ccn3CCCN2CCCC2)CC1`: the inhibition in assay [2] amounted to 31%; in assay [5], 2.9%. Besides, the IC50 was found to be 26 µM in the assay with MV4-11, 43.3 µM in the assay with U-937 and 6.17 µM in assay [6].
On to `CN1CCC(Nc2nc(-c3ccccc3)nc3c2ccn3CCCN2CCCC2)CC1`, for which the inhibition in assay [2] was found to be 45%; in assay [3], 8.6%; in assay [4], 6.6%; in assay [5] it was 1.1%. The values for the IC50 (with MV4-11; with U-937; in assay [6]) were 6.68 µM, 18.2 µM and 7.36 µM, respectively.
Regarding `CN1CCC(Nc2nc(N3CCN(C)CC3)nc3c2ccn3CCCN2CCCC2)CC1`, the inhibition is 39% in assay [2], 11% in assay [3], 11% in assay [4] and -1.9% in assay [5]. Also, the IC50 with MV4-11 is 11.1 µM; in the assay with U-937, 30.9 µM; in assay [6], 2.8 µM.
For `CC(C)N1CCC(Nc2nc(-c3ccc(F)cc3)nc3c2ncn3CCCN2CCCC2)CC1`, the half-maximal inhibitory concentration (IC50) in assay [1] is 17.4 µM; in the assay with MV4-11, 10.4 µM; in the assay on U-937, 12.8 µM. Also, the inhibition in assay [2] is 3.3%; in assay [3], 14%; in assay [4], 11%; in assay [5], -4.9%.
`CC(C)N1CCC(Nc2nc(N3CCCCC3)nc3c2ccn3CCCN2CCCC2)CC1`: the inhibition was found to be 13% in assay [2], 0.8% in assay [3], 11% in assay [4] and 6.5% in assay [5]. In addition, the IC50 turned out to be 12.3 µM in the assay on MV4-11 and 14.5 µM in the assay with U-937.
Take `CN1CCC(Nc2nc(-c3cn[nH]c3)nc3c2ccn3CCCN2CCCC2)CC1`: the inhibition in assay [2] is 35%; in assay [3] it was 7.2%; in assay [4], -6.9%; in assay [5] it was -2%. The IC50 was over 100 µM in the assay with MV4-11, over 100 µM in the assay with U-937 and 7.13 µM in assay [6].
For `CC(C)N1CCC(Nc2nc(N3CCCCC3)nc3c2ncn3CCCN2CCCC2)CC1`, the inhibition in assay [2] was determined as 12%; in assay [3] it was 4.3%; in assay [4], 9.9%; in assay [5], 7.6%. Also, the IC50 in the assay with MV4-11 and in the assay with U-937 was over 100 µM throughout.
Take `CN1CCC(Nc2nc(N3CCCCC3)nc3c2ccn3CCCN2CCOCC2)CC1`: the inhibition was 21% in assay [2], 3.7% in assay [3], -0.3% in assay [4] and 12% in assay [5]. Moreover, the IC50 in the assay with MV4-11 came to 24 µM; with U-937, 41 µM.
Turning to `Cc1ccc(-c2cc(NCC3CCN(C(=O)OC(C)(C)C)CC3)c3cnn(CCCN4CCCC4)c3c2)o1`, the inhibition in assay [2] worked out at 1.6%; in assay [3], 17%; in assay [4], 11%; in assay [5], 12%. Besides, the IC50 stood at 1.06 µM in the assay on MV4-11 and 3.21 µM in the assay on U-937.
In the case of `CN1CCN(c2cc(NCC3CCN(C(=O)OC(C)(C)C)CC3)c3cnn(CCCN4CCOCC4)c3c2)CC1`, the inhibition was found to be 98% in assay [2], 19% in assay [3], 31% in assay [4] and 10% in assay [5]. Further, the IC50 in the assay on MV4-11 came out at 22.1 µM; with U-937 it was 23.9 µM.
`CN1CCC(Nc2nc(N3CCOCC3)nc3c2ccn3CCCN2CCCC2)CC1`: the inhibition in assay [2] was 25%; in assay [3], -1.8%; in assay [4], 15%; in assay [5], 7.2%. The figures for the IC50 in the assay with MV4-11 and in the assay on U-937 were 25.9 µM and over 100 µM, respectively.
